IC50 data for 40 molecules are collected here from patent US20070043024A1, “Azacyclic compounds as inhibitors of sensory neurone specific channels” (priority 2003, published 2007).

pIC50: −log10 of the molar value. “And” between values parts separate entries of the source, which are not always exact repeats. Equal values may be shown once. Read-outs that look alike come from different tables or passages of the source.

The assay deals with T1, human Nav1.8 (hNav1.8) ion channel (Homo sapiens, UniProt Q9Y5Y9).
T1 construct: expressed in transfected cells
Put plainly: Inhibition of human Nav1.8 stably expressed in SH-SY-5Y cells (membrane potential dye fluorescence assay). It counts as cell-based. The settings on record: SH-SY-5Y hNav1.8 cells, inhibition of membrane depolarisation, FLIPR membrane potential dye, 250 nM TTX, test concentration range 100 μM-0.05 μM.

Setting [1] is: Table 2 (compound numbers of the list in the description), read-out: IC50.

T1 sequence (Q9Y5Y9 whole entry): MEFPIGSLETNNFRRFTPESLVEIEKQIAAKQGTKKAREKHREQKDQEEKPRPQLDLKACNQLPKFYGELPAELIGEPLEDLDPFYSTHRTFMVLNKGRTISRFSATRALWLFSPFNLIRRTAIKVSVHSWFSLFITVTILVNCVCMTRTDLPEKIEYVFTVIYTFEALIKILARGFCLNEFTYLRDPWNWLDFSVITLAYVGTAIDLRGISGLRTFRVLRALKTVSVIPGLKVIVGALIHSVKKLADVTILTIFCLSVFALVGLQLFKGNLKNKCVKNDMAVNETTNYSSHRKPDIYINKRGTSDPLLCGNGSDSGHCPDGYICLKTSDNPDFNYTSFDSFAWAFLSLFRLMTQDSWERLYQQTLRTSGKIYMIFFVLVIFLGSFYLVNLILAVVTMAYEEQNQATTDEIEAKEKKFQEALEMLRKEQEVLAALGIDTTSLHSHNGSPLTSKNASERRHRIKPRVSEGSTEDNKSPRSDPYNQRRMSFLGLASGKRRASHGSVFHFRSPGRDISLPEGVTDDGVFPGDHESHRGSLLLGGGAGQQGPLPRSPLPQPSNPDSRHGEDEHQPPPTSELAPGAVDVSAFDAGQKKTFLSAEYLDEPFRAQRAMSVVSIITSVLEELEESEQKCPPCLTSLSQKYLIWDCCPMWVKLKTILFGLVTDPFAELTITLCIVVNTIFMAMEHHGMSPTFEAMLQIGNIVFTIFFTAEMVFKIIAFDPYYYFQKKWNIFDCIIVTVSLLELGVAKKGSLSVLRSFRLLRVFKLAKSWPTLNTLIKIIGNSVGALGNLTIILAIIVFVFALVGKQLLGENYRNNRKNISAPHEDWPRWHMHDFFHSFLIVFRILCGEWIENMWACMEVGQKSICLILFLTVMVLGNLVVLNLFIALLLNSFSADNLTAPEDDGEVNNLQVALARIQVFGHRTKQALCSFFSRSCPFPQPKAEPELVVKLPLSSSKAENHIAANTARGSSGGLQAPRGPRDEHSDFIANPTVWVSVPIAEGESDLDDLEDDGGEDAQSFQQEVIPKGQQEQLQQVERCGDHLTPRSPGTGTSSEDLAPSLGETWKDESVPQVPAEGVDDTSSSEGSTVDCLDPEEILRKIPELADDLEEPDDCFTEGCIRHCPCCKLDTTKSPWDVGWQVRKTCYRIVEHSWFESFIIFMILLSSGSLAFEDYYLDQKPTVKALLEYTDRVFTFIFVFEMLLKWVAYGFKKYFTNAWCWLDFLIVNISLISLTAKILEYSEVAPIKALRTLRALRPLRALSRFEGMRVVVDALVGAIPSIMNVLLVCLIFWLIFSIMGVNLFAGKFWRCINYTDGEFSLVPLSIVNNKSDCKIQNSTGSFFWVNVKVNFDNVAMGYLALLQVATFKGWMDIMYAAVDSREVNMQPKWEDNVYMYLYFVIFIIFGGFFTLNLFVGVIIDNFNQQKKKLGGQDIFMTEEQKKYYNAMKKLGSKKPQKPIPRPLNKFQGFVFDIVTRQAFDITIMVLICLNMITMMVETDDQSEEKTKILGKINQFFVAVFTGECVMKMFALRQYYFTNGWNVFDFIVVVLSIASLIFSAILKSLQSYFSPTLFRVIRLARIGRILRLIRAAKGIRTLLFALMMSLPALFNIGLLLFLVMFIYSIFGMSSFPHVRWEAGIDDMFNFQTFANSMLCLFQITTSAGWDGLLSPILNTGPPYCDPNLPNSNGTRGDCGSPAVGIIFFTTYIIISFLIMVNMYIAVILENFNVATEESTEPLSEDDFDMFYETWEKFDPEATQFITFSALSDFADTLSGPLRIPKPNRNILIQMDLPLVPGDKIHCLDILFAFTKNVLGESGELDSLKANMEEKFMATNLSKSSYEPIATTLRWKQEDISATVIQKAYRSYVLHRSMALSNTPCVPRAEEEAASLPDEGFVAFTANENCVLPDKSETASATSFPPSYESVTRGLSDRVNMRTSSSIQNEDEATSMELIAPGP

One may read the pIC50 as the negative decadic logarithm of the IC50, by convention in mol/L. As for `COc1cccc2c1CN(C(=O)CNC(c1ccccc1)c1ccccc1)CC2` [Example 38, 2-(Benzhydryl-amino)-1-(8-methoxy-3,4-dihydro-1H-isoquinoline-2-yl)-ethanone], the pIC50 (Table 1, read-out: IC50) was 5.86. Same read-out and setting: to `Fc1ccc(C(CCCN2CCc3ccccc3C2)c2ccc(F)cc2)cc1` [Example 9, 2-[4,4-Bis-(4-fluoro-phenyl)-butyl]-1,2,3,4-tetrahydro-isoquinoline] belongs 6.37; to `S=C(NC(c1ccccc1)c1ccccc1)N1CCc2ccccc2C1` [Example 50, 3,4-Dihydro-1H-isoquinoline-2-carbothioic acid benzhydryl-amide], 5.56.

With `COc1ccc2c(c1)CCCN(CC(=O)NCCC(c1ccccc1)c1ccccc1)C2` [Compound 85, N-(3,3-diphenyl-propyl)-2-(7-methoxy-1,3,4,5-tetrahydro-benzo[c]azepin-2-yl)-acetamide], under setting [1], the pIC50 is 5.97. As to `COc1cc2c(cc1OC)CN(CC(=O)N1c3ccccc3Sc3ccc(Cl)cc31)CC2` [Compound 153, 1-(2-Chloro-phenothiazin-10-yl)-2-(6,7-dimethoxy-3,4-dihydro-1H-isoquinolin-2-yl)-ethanone], the pIC50 under setting [1] is 5.27.

`COc1cccc2c1CN(CC(=O)NC(C)c1ccccc1)CC2` (centres unmarked) [Compound 105, 2-(8-Methoxy-3,4-dihydro-1H-isoquinolin-2-yl)-N-(1-phenyl-ethyl)-acetamide]: the pIC50 under setting [1] is 4.80. Still for that read-out and setting: to `COc1cccc2c1CN(CCNC(=O)Nc1ccc(Oc3ccccc3)cc1)CC2` [Compound 174, 1-[2-(8-Methoxy-3,4-dihydro-1H-isoquinolin-2-yl)-ethyl]-3-(4-phenoxy-phenyl)-urea] belongs 6.26. As to `CC(=O)Nc1cccc2c1CN(CC(=O)NCCCC(c1ccccc1)c1ccccc1)CC2` [Compound 112, 2-(8-Acetylamino-3,4-dihydro-1H-isoquinolin-2-yl)-N-(4,4-diphenyl-butyl)-acetamide], the pIC50 under setting [1] is 6.10.

On to `COc1cccc2c1CN(CC(=O)N(C(C)C)C(C)C)CC2` [Compound 78, N,N-diisopropyl-2-(8-methoxy-3,4-dihydro-1H-isoquinolin-2-yl)-acetamide], for which, under setting [1], the pIC50 is 4.54. As for `O=C(CN1Cc2ccccc2C1)NCCC(c1ccccc1)c1ccccc1` [Example 40, 2-(1,3-Dihydro-isoindol-2-yl)-N-(3,3-diphenyl-propyl)-acetamide], the pIC50 reads like this: (Table 1, read-out: IC50) 6.01; under setting [1], 6.28. Turning to `O=C(CON=C(c1ccccc1)c1ccccc1)N1CCc2ccccc2C1` [Example 42, 2-Benzhydrylideneaminooxy-1-(3,4-dihydro-1H-isoquinoline-2-yl)-ethanone], where the note is “Table 1, read-out: IC50”, the pIC50 was 5.98.

In the case of `O=C(CN1Cc2cccc(Cl)c2C1)N1c2ccccc2Oc2ccccc21` [Compound 219, 2-(4-Chloro-1,3-dihydro-isoindol-2-yl)-1-phenoxazin-10-yl-ethanone], the pIC50 under setting [1] was 6.10. On to `COc1cccc2c1CN(CC(=O)N1c3ccccc3Oc3ccccc31)CC2` [Compound 72, 2-(8-methoxy-3,4-dihydro-1H-isoquinolin-2-yl)-1-phenoxazin-10-yl-ethanone], for which, under setting [1], the pIC50 was 6.31 and 5.89. Regarding `COc1cc2c(cc1OC)CN(CCNC(=S)NC(c1ccccc1)c1ccccc1)CC2` [Compound 134, 1-Benzhydryl-3-[2-(6,7-dimethoxy-3,4-dihydro-1H-isoquinolin-2-yl)-ethyl]-thiourea], the negative-log IC50 (pIC50) under setting [1] was 6.11. Take `COc1cc2c(cc1OC)CN(CC(=O)N1c3ccccc3Sc3ccccc31)CC2` [Compound 152, 2-(6,7-Dimethoxy-3,4-dihydro-1H-isoquinolin-2-yl)-1-phenothiazin-10-yl-ethanone]: the pIC50 under setting [1] was 5.52. Same read-out and setting: next, `COc1cccc2c1CN(CC(=O)NC(c1ccc(F)cc1)c1ccc(F)cc1)CC2` [Compound 120, N-[Bis-(4-fluoro-phenyl)-methyl]-2-(8-methoxy-3,4-dihydro-1H-isoquinolin-2-yl)-acetamide]: 5.48; `O=C(CN1Cc2cccc(O)c2C1)N1c2ccccc2Oc2ccccc21` [Compound 202, 2-(4-Hydroxy-1,3-dihydro-isoindol-2-yl)-1-phenoxazin-10-yl-ethanone]: 6.17.

With `Oc1cccc2c1CN(Cc1n[nH]nc1-c1ccccc1)CC2` [Example 45, 2-(5-Phenyl-2H-[1,2,3]triazol-4-ylmethyl)-1,2,3,4-tetrahydro-isoquinolin-8-ol], the pIC50 (Table 1, read-out: IC50) is 5.14. On to `COc1cccc2c1CN(CC(=O)N1Cc3ccccc3Oc3ccccc31)CC2` [Compound 207, 1-(11H-Dibenzo[b,f][1,4]oxazepin-10-yl)-2-(8-methoxy-3,4-dihydro-1H-isoquinolin-2-yl)-ethanone], for which, under setting [1], the pIC50 is 6.03. In the case of `COc1cccc2c1CN(CC(c1ccccc1)c1ccccc1)CC2` [Example 13, 2-(2,2-Diphenyl-ethyl)-8-methoxy-1,2,3,4-tetrahydro-isoquinoline], the pIC50 (Table 1, read-out: IC50) was 5.86.

As to `Nc1cccc2c1CCN(CCC(=O)NCCC(c1ccccc1)c1ccccc1)C2` [Compound 122, 3-(5-Amino-3,4-dihydro-1H-isoquinolin-2-yl)-N-(3,3-diphenyl-propyl)-propionamide], the pIC50 under setting [1] is 6.02. Consider “N-Benzhydryl-2-(8-methoxy-3,4-dihydro-1H-isoquinolin-2-yl)-N-phenyl-acetamide [Example 21]”, for which the pIC50 (Table 1, read-out: IC50) is 5.90.

As for `COc1cccc2c1CN(CC(=O)N1CCOc3ccccc31)CC2` [Compound 192, 1-(2,3-Dihydro-benzo[1,4]oxazin-4-yl)-2-(8-methoxy-3,4-dihydro-1H-isoquinolin-2-yl)-ethanone], under setting [1], the pIC50 was 5.04. For `O=C(CN(Cc1ccccc1)Cc1ccccc1)N1CCc2ccccc2C1` [Example 35, 2-Dibenzylamino-1-(3,4-dihydro-1H-isoquinolin-2-yl)-ethanone], the pIC50 (Table 1, read-out: IC50) is 5.31. As for `O=C(CN1CCc2ccccc2C1)NCC(c1ccccc1)c1ccccc1` [Example 60, 2-(3,4-Dihydro-1H-isoquinolin-2-yl)-N-(2,2-diphenyl-ethyl)-acetamide], where the note is “Table 1, read-out: IC50”, the negative-log IC50 (pIC50) is 6.02.

Take `CS(=O)(=O)Nc1cccc2c1CN(CC(=O)N1c3ccccc3Oc3ccccc31)CC2` [Compound 198, N-[2-(2-Oxo-2-phenoxazin-10-yl-ethyl)-1,2,3,4-tetrahydro-isoquinolin-8-yl]-methanesulfonamide]: under setting [1], the pIC50 is 5.74. `COc1cccc2c1CN(CC(=O)Nc1ccccc1Oc1ccccc1)CC2` [Compound 184, 2-(8-Methoxy-3,4-dihydro-1H-isoquinolin-2-yl)-N-(2-phenoxy-phenyl)-acetamide]: under setting [1], the pIC50 is 4.96.

Consider `O=C(CNC(c1ccccc1)c1ccccc1)N1Cc2ccccc2C1` [Compound 107, 2-(Benzhydryl-amino)-1-(1,3-dihydro-isoindol-2-yl)-ethanone], for which, under setting [1], the pIC50 is 5.65. On the same count and under the same terms, to `Cc1cc2cc(Cl)ccc2n1CCCNC(=O)CN1CCc2cccc(O)c2C1` [Compound 131, N-[3-(5-Chloro-2-methyl-indol-1-yl)-propyl]-2-(8-hydroxy-3,4-dihydro-1H-isoquinolin-2-yl)-acetamide] belongs 5.44.

In the case of `O=C(CN1c2ccccc2Oc2ccccc21)N1Cc2ccccc2C1` [Compound 218, 1-(1,3-Dihydro-isoindol-2-yl)-2-phenoxazin-10-yl-ethanone], the negative-log IC50 (pIC50) under setting [1] is 4.89. On to `O=C(CN1CCc2cccc(O)c2C1)N(Cc1ccccc1)c1ccccc1` [Example 25, N-Benzyl-2-(8-hydroxy-3,4-dihydro-1H-isoquinolin-2-yl)-N-phenyl-acetamide], for which the pIC50 (IC50, Table 1) is 5.97. As for `Nc1cccc2c1CN(CC(=O)NCC(c1ccccc1)c1ccccc1)CC2` [Compound 111, 2-(8-Amino-3,4-dihydro-1H-isoquinolin-2-yl)-N-(2,2-diphenyl-ethyl)-acetamide], the pIC50 under setting [1] was 5.41.

On to `COc1ccc2c(c1)CCCN(CC(=O)NC(c1ccccc1)c1ccccc1)C2` [Compound 83, N-benzhydryl-2-(7-methoxy-1,3,4,5-tetrahydro-benzo[c]azepin-2-yl)-acetamide], for which the pIC50 under setting [1] was 6.08. `O=C(CCN1CCc2cccc(O)c2C1)N1c2ccccc2Oc2ccccc21` [Compound 190, 3-(8-Hydroxy-3,4-dihydro-1H-isoquinolin-2-yl)-1-phenoxazin-10-yl-propan-1-one]: under setting [1], the pIC50 is 6.28. Consider `COc1ccc2c(c1)CCCN(CC(=O)NCC(c1ccccc1)c1ccccc1)C2` [Compound 84, N-(2,2-diphenyl-ethyl)-2-(7-methoxy-1,3,4,5-tetrahydro-benzo[c]azepin-2-yl)-acetamide], for which, under setting [1], the negative-log IC50 (pIC50) was 6.40. Same read-out and setting: next, `COc1ccc(C(CCNC(=O)CN2CCc3ccccc3C2)c2ccc(OC)cc2)cc1` [Compound 114, N-[3,3-Bis-(4-methoxy-phenyl)-propyl]-2-(3,4-dihydro-1H-isoquinolin-2-yl)-acetamide]: 4.97.

For `O=C(CN1CCc2cccc(O)c2C1)NCCC(c1ccccc1)c1ccccc1` [Example 27, N-(3,3-Diphenyl-propyl)-2-(8-hydroxy-3,4-dihydro-1H-isoquinolin-2-yl)-acetamide], the pIC50 (IC50, Table 1) is 5.99.

For `O=C(CN(CCC(c1ccccc1)c1ccccc1)CC(=O)N1CCc2ccccc2C1)N1CCc2ccccc2C1` [Example 33, 1-(3,4-Dihydro-1H-isoquinolin-2-yl)-2-[[2-(3,4-dihydro-1H-isoquinolin-2-yl)-2-oxo-ethyl]-(3,3-diphenyl-propyl)-amino]-ethanone], the pIC50 (Table 1, read-out: IC50) was 6.07. `C=CCOc1cccc2c1CN(CC(=O)NCCC(c1ccccc1)c1ccccc1)CC2` [Compound 97, 2-(8-Allyloxy-3,4-dihydro-1H-isoquinolin-2-yl)-N-(3,3-diphenyl-propyl)-acetamide]: the pIC50 under setting [1] is 5.64. As to `COc1ccc2c(c1)CN(CCN(Cc1ccccc1)Cc1ccccc1)CC2` [Example 88, Dibenzyl-[2-(7-methoxy-3,4-dihydro-1H-isoquinolin-2-yl)-ethyl]-amine], the negative-log IC50 (pIC50) (Table 1, read-out: IC50) is 6.24.
